Experimental data: PubChem BioAssay (NCI)
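The compound was tested at five concentrations on cells cultured in 96-well plates, with a 48-hour exposure period. GI50 is the concentration that inhibits growth by half. TGI denotes the concentration required for complete inhibition of growth.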

Tests used:
Assay in all cases: DTP human tumour cell line panel, 48 h
HCT-15 colon = test system: HCT-15 colon
U251 CNS = test system: U251 CNS
K-562 leukemia = test system: K-562 leukemia
SK-MEL-2 melanoma = test system: SK-MEL-2 melanoma
OVCAR-8 ovarian = test system: OVCAR-8 ovarian
SK-MEL-5 melanoma = test system: SK-MEL-5 melanoma
UO-31 renal = test system: UO-31 renal
OVCAR-5 ovarian = test system: OVCAR-5 ovarian
HOP-18 NSCLC = test system: HOP-18 NSCLC
MOLT-4 leukemia = test system: MOLT-4 leukemia
SK-OV-3 ovarian = test system: SK-OV-3 ovarian

Structure (SMILES)	TGI (HCT-15 colon) [µM]	TGI (U251 CNS) [µM]	TGI (K-562 leukemia) [µM]	TGI (SK-MEL-2 melanoma) [µM]	TGI (OVCAR-8 ovarian) [µM]	TGI (SK-MEL-5 melanoma) [µM]	TGI (UO-31 renal) [µM]	TGI (OVCAR-5 ovarian) [µM]	TGI (HOP-18 NSCLC) [µM]	TGI (MOLT-4 leukemia) [µM]	GI50 (HCT-15 colon) [µM]	GI50 (U251 CNS) [µM]	GI50 (K-562 leukemia) [µM]	GI50 (SK-OV-3 ovarian) [µM]	TGI (SK-OV-3 ovarian) [µM]	GI50 (SK-MEL-2 melanoma) [µM]	GI50 (OVCAR-8 ovarian) [µM]	GI50 (SK-MEL-5 melanoma) [µM]	GI50 (UO-31 renal) [µM]	GI50 (MOLT-4 leukemia) [µM]
Cc1cc(=O)[nH]c(NN2C(Cl)C(=O)C2c2c(O)ccc3ccccc23)n1 (centres undefined)	36.9	63.1	> 100	30.2	> 100	29.9	> 100	> 100	53.5	64.1	–	–	–	–	–	–	–	–	–	–
c1ccc(C2=NN[C@H](c3cn(-c4ccccc4)nc3-c3ccccc3)C2)cc1	> 100	15.6	> 100	> 100	> 100	> 100	> 100	–	–	> 100	> 100	2.91	> 100	2.04	4.52	30.2	3.64	7.66	2.87	> 100
Cc1n(CC(C)C)c2c([n+]1CC(=O)c1ccc([N+](=O)[O-])cc1)C(=O)c1ccccc1C2=O	15.6	0.034	1.33	0.0837	0.476	< 0.0309	30.2	0.0698	0.202	0.0742	–	–	–	–	0.869	–	–	–	–	–
C=CCCCCn1c2ccccc2c2c(C)c3c[n+](C)ccc3c(C)c21	–	1.14	1.29	1.52	1.28	1.36	19.4	3.26	1.15	1.28	–	–	–	–	3.2	–	–	–	–	–
